# Values of other authors, collected in patent US20210353783A1, “IMAGING AGENTS FOR RADIOLABELING EXOGENOUS AND ENDOGENOUS ALBUMIN” (CENTURION BIOPHARMA CORPORATION, priority 2018, published 2021).
# Legend:
# circulating albumin = circulating albumin (Homo sapiens, UniProt P02768)
# [1] = phase 1-3 clinical trials
# [2] = human, after intravenous administration, bound to cysteine-34 of endogenous albumin
# Sequence of circulating albumin (P02768 25-609): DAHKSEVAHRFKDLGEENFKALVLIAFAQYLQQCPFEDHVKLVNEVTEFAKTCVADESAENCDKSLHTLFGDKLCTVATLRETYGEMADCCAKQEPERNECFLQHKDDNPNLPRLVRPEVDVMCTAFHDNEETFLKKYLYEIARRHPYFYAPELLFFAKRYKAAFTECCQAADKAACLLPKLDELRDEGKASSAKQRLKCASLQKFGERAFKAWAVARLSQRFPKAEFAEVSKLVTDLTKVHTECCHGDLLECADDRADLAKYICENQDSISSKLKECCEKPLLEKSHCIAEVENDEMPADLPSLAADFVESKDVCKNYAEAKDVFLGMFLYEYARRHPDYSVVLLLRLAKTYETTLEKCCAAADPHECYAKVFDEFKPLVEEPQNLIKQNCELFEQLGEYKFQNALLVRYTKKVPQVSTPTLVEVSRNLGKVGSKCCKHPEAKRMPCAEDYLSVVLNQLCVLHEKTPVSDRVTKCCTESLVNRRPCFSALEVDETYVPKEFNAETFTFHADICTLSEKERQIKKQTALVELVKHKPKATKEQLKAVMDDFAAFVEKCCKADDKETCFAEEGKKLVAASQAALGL
structure (smiles),measurement,setting,value
"COc1cccc2c1C(=O)c1c(O)c3c(c(O)c1C2=O)C[C@@](O)(/C(CO)=N/NC(=O)CCCCCN1C(=O)C=CC1=O)C[C@@H]3O[C@H]1C[C@H](N)[C@H](O)[C@H](C)O1 [aldoxorubicin, (6-maleimidocaproyl)hydrazone derivative of doxorubicin]",binding to circulating albumin,circulating albumin,rapidly and selectively bound to circulating albumin within a few minutes
same,cardiotoxicity,[1],lack of cardiotoxicity
same,increase in the maximum tolerated dose (MTD) compared to conventional doxorubicin,[1],3.5 fold
same,t1/2 in man,[2],20 to 21 h
